Measurements as given in US6914045B2, “Glycopeptide antibiotics” (Wyeth Holdings Corporation, priority 2001, dated 2005).
≈ marks a conversion by molar mass, not a printed value.

Assays:
Escherichia coli = experiment: in vitro antibacterial evaluation, MIC by broth dilution; format: cell-based
In short: (§1)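 Broth dilution per NCCLS M7-A2 in Mueller-Hinton II medium, inoculum 5×10^5 CFU/mL, antibiotic range 64-0.06 μg/mL. MIC taken as lowest concentration inhibiting growth; Gram-positive panel includes recent clinical isolates resistant to methicillin, penicillin and/or vancomycin.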

Streptococcus sp. = experiment: as above; format: cell-based; details: broth dilution, 18 hours at 35° C.
In short: as §1

Staphylococcus sp. = experiment: as above; format: cell-based; details: broth dilution, 18 hours at 35° C.; for MIC Staphylococcus aureus (GC 1131): strain GC 1131
In short: as §1

Enterococcus sp. = experiment: as above; format: cell-based; details: broth dilution, 18 hours at 35° C.
In short: as §1

[1] = anatomic pathology (histopathology of heart and kidney) in mice; format: in vivo; details: CD-1 mice, 20 mg/kg intravenously daily for 9 days, necropsy day 10, microscopic histopathology
Method: Samples of tissues from necropsied mice were formalin-fixed, paraffin-embedded, sectioned, stained with hematoxylin and eosin, and examined microscopically. Histopathologic findings were recorded. These findings were subjectively graded on a scale corresponding to slight, mild, moderate, marked and severe as compared to untreated controls.

[2] = clinical pathology (serum clinical chemistry) in mice; format: in vivo; details: CD-1 mice, 20 mg/kg intravenously daily for 9 days, sera day 10
Method: 20-day-old CD-1 mice were divided into a vehicle control group (5 mice) and a treatment group (5 mice). Samples of glycopeptide antibiotics were administered at 20 mg/kg intravenously daily for 9 days.

With `CC(c1ccccc1)C1NC(=O)CNC(=O)C(CO)NC(=O)C(C(O)C2CNC(=N)N2C2OC(CO)C(O)C(O)C2O)NC(=O)C(C(O)C2CNC(=N)N2)NC(=O)C(Cc2ccc(OC3OC(CO)C(OC4OC5COC(c6ccc(C(=O)O)cc6)OC5C(O)C4O)C(O)C3O)cc2)NC1=O` (stereo not drawn) [Example 141, Cyclo[glycyl-β-methylphenylalanyl-O-[4-O-[4,6-O-(4-carboxybenzylidene)hexopyranosyl]-hexopyranosyl]tyrosyl-3-(2-iminoimidazolidin-4-yl)seryl-3-(3-hexopyranosyl-2-iminoimidazolidin-4-yl)serylseryl]] as the compound, how does the “MIC Escherichia coli (ATCC 25922)” value (Escherichia coli; strain ATCC 25922, 18 hours at 35° C.) read?
The value was >64 µg/mL.

What about the “MIC Escherichia coli (GC 4559)” value (Escherichia coli; strain GC 4559, 18 hours at 35° C.) of the same compound?
Its value is >64 µg/mL.

And the “MIC Escherichia coli (GC 4560)” value (Escherichia coli; strain GC 4560, 18 hours at 35° C.)?
The value was >64 µg/mL.

What about the “MIC Streptococcus agalactiae (GC 4564)” value (Streptococcus sp.; Streptococcus agalactiae (GC 4564)) of the same compound?
The value was >64 µg/mL.

What about the “MIC Streptococcus pneumoniae (ATCC 6301)” value (Streptococcus sp.; Streptococcus pneumoniae (ATCC 6301)) of the same compound?
Its value is >64 µg/mL.

And the “MIC Streptococcus pneumoniae (GC 1894)” value (Streptococcus sp.; Streptococcus pneumoniae (GC 1894))?
Its value is >64 µg/mL.

And the “MIC Streptococcus pneumoniae (GC 4565)” value (Streptococcus sp.; Streptococcus pneumoniae (GC 4565))?
Its value is >64 µg/mL.

And the “MIC Streptococcus pyogenes (GC 4563)” value (Streptococcus sp.; Streptococcus pyogenes (GC 4563))?
The value was >64 µg/mL.

And the “MIC Streptococcus pneumoniae (ATCC 6301)” value (Streptococcus sp.; strain ATCC 6301)?
Its value is >64 µg/mL.

And the “MIC Streptococcus pneumoniae (GC 1894)” value (Streptococcus sp.; strain GC 1894)?
The value was >64 µg/mL.

What about the “MIC Streptococcus pyogenes (GC 4563)” value (Streptococcus sp.; strain GC 4563) of the same compound?
The value was >64 µg/mL.

What about the “MIC Streptococcus agalactiae (GC 4564)” value (Streptococcus sp.; strain GC 4564) of the same compound?
The value was >64 µg/mL.

What about the “MIC Streptococcus pneumoniae (GC 4565)” value (Streptococcus sp.; strain GC 4565) of the same compound?
Its value is >64 µg/mL.

What about the “MIC Staphylococcus aureus (GC 1131)” value (Staphylococcus sp.; inoculum 5×10^5 CFU/mL) of the same compound?
Its value is >64 µg/mL.

And the “MIC Staphylococcus aureus (ATCC 29213)” value (Staphylococcus sp.; strain ATCC 29213)?
Its value is >64 µg/mL.

What about the “MIC Staphylococcus aureus (GC 1131)” value (Staphylococcus sp.) of the same compound?
The value was >64 µg/mL.

What about the “MIC Staphylococcus aureus (GC 3051)” value (Staphylococcus sp.; strain GC 3051) of the same compound?
Its value is >64 µg/mL.

What about the “MIC Staphylococcus aureus (GC 3053)” value (Staphylococcus sp.; strain GC 3053) of the same compound?
The value was >64 µg/mL.

And the “MIC Staphylococcus aureus (GC 4541)” value (Staphylococcus sp.; strain GC 4541)?
The value was >64 µg/mL.

What about the “MIC Staphylococcus aureus (GC 4542)” value (Staphylococcus sp.; strain GC 4542) of the same compound?
The value was >64 µg/mL.

And the “MIC Staphylococcus aureus-SMITH (GC 4543)” value (Staphylococcus sp.; strain GC 4543)?
Its value is >64 µg/mL.

What about the “MIC Staphylococcus aureus (GC 4544)” value (Staphylococcus sp.; strain GC 4544) of the same compound?
The value was >64 µg/mL.

And the “MIC Staphylococcus aureus (GC 4545)” value (Staphylococcus sp.; strain GC 4545)?
Its value is >64 µg/mL.

And the “MIC Staphylococcus haemolyticus (GC 4546)” value (Staphylococcus sp.; strain GC 4546)?
Its value is >64 µg/mL.

And the “MIC Coagulase Negative Staphylococcus (GC 4547)” value (Staphylococcus sp.; strain GC 4547)?
Its value is >64 µg/mL.

And the “MIC Coagulase Negative Staphylococcus (GC 4548)” value (Staphylococcus sp.; strain GC 4548)?
The value was >64 µg/mL.

And the “MIC Coagulase Negative Staphylococcus (GC 4549)” value (Staphylococcus sp.; strain GC 4549)?
The value was >64 µg/mL.

What about the “MIC Coagulase Negative Staphylococcus (GC 4551)” value (Staphylococcus sp.; strain GC 4551) of the same compound?
Its value is >64 µg/mL.

And the “MIC Coagulase Negative Staphylococcus (GC 6257)” value (Staphylococcus sp.; strain GC 6257)?
Its value is >64 µg/mL.

And the “MIC Staphylococcus aureus-SMITH (GC 4543)” value (Staphylococcus sp.; strain SMITH GC 4543)?
The value was >64 µg/mL.

And the “MIC Enterococcus avium (GC 4558)” value (Enterococcus sp.; Enterococcus avium (GC 4558))?
The value was >64 µg/mL.

And the “MIC Enterococcus faecalis (ATCC 29212)” value (Enterococcus sp.; Enterococcus faecalis (ATCC 29212))?
Its value is >64 µg/mL.

And the “MIC Enterococcus faecalis (GC 2242)” value (Enterococcus sp.; Enterococcus faecalis (GC 2242))?
The value was >64 µg/mL.

What about the “MIC Enterococcus faecalis (GC 2691)” value (Enterococcus sp.; Enterococcus faecalis (GC 2691)) of the same compound?
The value was >64 µg/mL.

What about the “MIC Enterococcus faecalis (GC 3059)” value (Enterococcus sp.; Enterococcus faecalis (GC 3059)) of the same compound?
The value was >64 µg/mL.

What about the “MIC Enterococcus faecalis (GC 4552)” value (Enterococcus sp.; Enterococcus faecalis (GC 4552)) of the same compound?
Its value is >64 µg/mL.

And the “MIC Enterococcus faecalis (GC 4553)” value (Enterococcus sp.; Enterococcus faecalis (GC 4553))?
Its value is >64 µg/mL.

And the “MIC Enterococcus faecalis (GC 4554)” value (Enterococcus sp.; Enterococcus faecalis (GC 4554))?
Its value is >64 µg/mL.

And the “MIC Enterococcus faecalis (GC 6189)” value (Enterococcus sp.; Enterococcus faecalis (GC 6189))?
Its value is >64 µg/mL.

And the “MIC Enterococcus faecium (GC 2243)” value (Enterococcus sp.; Enterococcus faecium (GC 2243))?
The value was >64 µg/mL.

What about the “MIC Enterococcus faecium (GC 4556)” value (Enterococcus sp.; Enterococcus faecium (GC 4556)) of the same compound?
The value was >64 µg/mL.

And the “MIC Enterococcus faecium (GC 4557)” value (Enterococcus sp.; Enterococcus faecium (GC 4557))?
The value was 64 µg/mL (≈ 44.8 µM).

What about the “MIC Enterococcus faecalis (ATCC 29212)” value (Enterococcus sp.; strain ATCC 29212) of the same compound?
The value was >64 µg/mL.

What about the “MIC Enterococcus faecalis (GC 2242)” value (Enterococcus sp.; strain GC 2242) of the same compound?
The value was >64 µg/mL.

And the “MIC Enterococcus faecium (GC 2243)” value (Enterococcus sp.; strain GC 2243)?
The value was >64 µg/mL.

And the “MIC Enterococcus faecalis (GC 2691)” value (Enterococcus sp.; strain GC 2691)?
Its value is >64 µg/mL.

And the “MIC Enterococcus faecalis (GC 3059)” value (Enterococcus sp.; strain GC 3059)?
The value was >64 µg/mL.

And the “MIC Enterococcus faecalis (GC 4552)” value (Enterococcus sp.; strain GC 4552)?
Its value is >64 µg/mL.

What about the “MIC Enterococcus faecalis (GC 4553)” value (Enterococcus sp.; strain GC 4553) of the same compound?
The value was >64 µg/mL.

And the “MIC Enterococcus faecalis (GC 4554)” value (Enterococcus sp.; strain GC 4554)?
The value was >64 µg/mL.

What about the “MIC Enterococcus faecium (GC 4556)” value (Enterococcus sp.; strain GC 4556) of the same compound?
Its value is >64 µg/mL.

And the “MIC Enterococcus faecium (GC 4557)” value (Enterococcus sp.; strain GC 4557)?
Its value is 64 µg/mL (≈ 44.8 µM).

What about the “MIC Enterococcus avium (GC 4558)” value (Enterococcus sp.; strain GC 4558) of the same compound?
Its value is >64 µg/mL.

And the “MIC Enterococcus faecalis (GC 6189)” value (Enterococcus sp.; strain GC 6189)?
Its value is >64 µg/mL.

And the “Anatomical Pathology (Day 10), Heart” value [1]?
The value was 0.

What about the “Anatomical Pathology (Day 10), Kidney” value [1] of the same compound?
Its value is “+++”.

What about the “Clinical Chemistry (Day 10) % of Control, BUN” value [2] of the same compound?
The value was “+308%”.

What about the “Clinical Chemistry (Day 10) % of Control, Creatinine” value [2] of the same compound?
Its value is “+113%”.
